Assay results: patent publication US20090111778A1, “2-Keto-Oxazoles as Modulators of Fatty Acid Amide Hydrolase” (priority 2005, published 2009)

How the values were obtained:
human FAAH = molecular target: T1, human FAAH (Homo sapiens, UniProt O00519); assay: Assay Method 1: FAAH assay, hydrolysis of 3H-anandamide by homogenate of SK-N-MC cells transfected with human FAAH; format: biochemical; conditions: human FAAH; T84 or transfected SK-N-MC cell homogenate; 3H-AEA tracer 80 nM; rt 1 h; pH 9; read-out: Assay 1 IC50
T1 construct: expressed in transfected cells
T1 sequence (O00519 1-579): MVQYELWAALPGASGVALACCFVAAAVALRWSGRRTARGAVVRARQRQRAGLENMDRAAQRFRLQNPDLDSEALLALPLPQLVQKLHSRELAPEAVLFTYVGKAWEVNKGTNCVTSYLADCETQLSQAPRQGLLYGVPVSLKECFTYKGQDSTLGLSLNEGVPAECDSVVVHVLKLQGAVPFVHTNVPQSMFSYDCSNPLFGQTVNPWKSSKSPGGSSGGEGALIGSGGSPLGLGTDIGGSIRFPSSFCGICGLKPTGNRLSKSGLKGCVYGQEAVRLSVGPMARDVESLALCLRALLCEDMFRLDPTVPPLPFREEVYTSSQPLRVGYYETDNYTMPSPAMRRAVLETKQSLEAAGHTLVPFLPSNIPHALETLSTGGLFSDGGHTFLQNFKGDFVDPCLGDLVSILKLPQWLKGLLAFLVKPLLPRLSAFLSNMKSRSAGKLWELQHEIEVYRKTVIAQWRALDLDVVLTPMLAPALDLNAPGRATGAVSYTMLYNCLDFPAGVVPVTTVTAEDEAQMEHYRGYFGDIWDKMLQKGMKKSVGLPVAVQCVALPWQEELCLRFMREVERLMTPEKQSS
Outline: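 Homogenate of SK-N-MC cells stably expressing human FAAH (G418-selected clones) incubated with compound and 80 nM [1-3H-ethanolamine]anandamide for 1 h at rt. Released 3H-ethanolamine separated from substrate by activated-charcoal filtration, then counted by scintillation.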

rat FAAH = molecular target: T2, rat FAAH (Rattus norvegicus, UniProt P97612); assay: Assay Method 2: FAAH assay, hydrolysis of 3H-anandamide by homogenate of SK-N-MC cells transfected with rat FAAH; format: biochemical; conditions: T84 or transfected SK-N-MC cell homogenate, 3H-AEA tracer 80 nM, rt 1 h, pH 9
T2 construct: expressed in transfected cells
T2 sequence (P97612 1-579): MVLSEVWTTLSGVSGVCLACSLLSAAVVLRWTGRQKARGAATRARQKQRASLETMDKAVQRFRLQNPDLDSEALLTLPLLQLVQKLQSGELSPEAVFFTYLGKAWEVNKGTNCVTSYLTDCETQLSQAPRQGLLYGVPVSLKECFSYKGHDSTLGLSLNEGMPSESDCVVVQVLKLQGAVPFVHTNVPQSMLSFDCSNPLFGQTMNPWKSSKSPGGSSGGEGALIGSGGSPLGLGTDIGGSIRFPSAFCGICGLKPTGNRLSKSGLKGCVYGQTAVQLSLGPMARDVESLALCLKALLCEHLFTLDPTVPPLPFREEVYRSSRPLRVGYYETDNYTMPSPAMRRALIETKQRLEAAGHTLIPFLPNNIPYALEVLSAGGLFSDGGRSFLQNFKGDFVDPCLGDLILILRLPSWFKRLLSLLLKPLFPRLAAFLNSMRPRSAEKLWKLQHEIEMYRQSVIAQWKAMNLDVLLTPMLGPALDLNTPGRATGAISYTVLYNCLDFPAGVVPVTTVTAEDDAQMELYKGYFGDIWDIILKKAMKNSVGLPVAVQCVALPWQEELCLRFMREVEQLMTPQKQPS
Outline: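 SK-N-MC cells stably transfected with rat FAAH cDNA (electroporation, G418 selection); homogenate hydrolyses 3H-anandamide. Reaction 1 h at rt, then filtered through activated charcoal; unbound labelled ethanolamine in filtrate counted by scintillation.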

Row | Compound | IC50 (human FAAH) [nM] | IC50 (rat FAAH) [nM]
1 | Cc1cccc2cc(CN3CCC(CCCC(=O)c4ncco4)CC3)c(Cl)nc12 [Example 99, 4-[1-(2-Chloro-8-methyl-quinolin-3-ylmethyl)-piperidin-4-yl]-1-oxazol-2-yl-butan-1-one] | 5 | 8
2 | O=C(CCCC1CCN(Cc2ccc(N3CCCC3)cc2)CC1)c1ncco1 [Example 102, 1-oxazol-2-yl-4-[1-(4-pyrrolidin-1-yl-benzyl)-piperidin-4-yl]-butan-1-one] | 530 | 3000
3 | O=C(CCCC1CCN(Cc2ccc(N3CCCCC3)cc2)CC1)c1ncco1 [Example 103, 1-Oxazol-2-yl-4-[1-(4-piperidin-1-yl-benzyl)-piperidin-4-yl]-butan-1-one] | 108 | 250
4 | O=C(CCCC1CCN(Cc2ccc(N3CCOCC3)nc2)CC1)c1ncco1 [Example 107, 4-[1-(6-Morpholin-4-yl-pyridin-3-ylmethyl)-piperidin-4-yl]-1-oxazol-2-yl-butan-1-one] | 180 | 2000
5 | O=C(CCCC1CCN(Cc2ccc(-c3ccsc3)nc2)CC1)c1ncco1 [Example 111, 1-Oxazol-2-yl-4-[1-(6-thiophen-3-yl-pyridin-3-ylmethyl)-piperidin-4-yl]-butan-1-one] | 15 | 193
6 | O=C(CCCC1CCN(Cc2ccc(F)cc2F)CC1)c1ncco1 [Example 114, 4-[1-(2,4-Difluoro-benzyl)-piperidin-4-yl]-1-oxazol-2-yl-butan-1-one] | 110 | 325
7 | O=C(CCCC1CCN(Cc2ccc3cccnc3n2)CC1)c1ncco1 [Example 116, 4-(1-[1,8]Naphthyridin-2-ylmethyl-piperidin-4-yl)-1-oxazol-2-yl-butan-1-one] | 370 | 7000
8 | O=C(CCCC1CCN(Cc2cnc3ccccc3n2)CC1)c1ncco1 [Example 117, 1-Oxazol-2-yl-4-(1-quinoxalin-2-ylmethyl-piperidin-4-yl)-butan-1-one] | 175 | 277
9 | O=C(CCCC1CCN(Cc2ccco2)CC1)c1ncco1 [Example 118, 4-(1-Furan-2-ylmethyl-piperidin-4-yl)-1-oxazol-2-yl-butan-1-one] | 354 | 935
10 | CC(C)(C)OC(=O)N1CCC(CCCC(=O)c2ncc(-c3ccccn3)o2)CC1 [Example 119, 4-[4-Oxo-4-(5-pyridin-2-yl-oxazol-2-yl)-butyl]-piperidine-1-carboxylic acid tert-butyl ester] | 0.8 | 3
11 | CC(C)(C)OC(=O)N1CCC(CCCC(=O)c2ncc(-c3ccco3)o2)CC1 [Example 120, 4-[4-(5-Furan-2-yl-oxazol-2-yl)-4-oxo-butyl]-Piperidine-1-carboxylic acid tert-butyl ester] | 2 | 21
12 | O=C(CCCC1CCN(Cc2c(F)cc(F)cc2F)CC1)c1ncco1 [Example 123, 1-Oxazol-2-yl-4-[1-(2,4,6-trifluoro-benzyl)-piperidin-4-yl]-butan-1-one] | 200 | 280
13 | CCCCCCCN1CCC(CCCC(=O)c2ncco2)CC1 [Example 126, 4-(1-Heptyl-piperidin-4-yl)-1-oxazol-2-yl-butan-1-one] | 23 | 810
14 | CCCCCCCCCN1CCC(CCCC(=O)c2ncco2)CC1 [Example 127, 4-(1-Nonyl-Piperidin-4-yl)-1-oxazol-2-yl-butan-1-one] | 8 | 57
15 | CC(C)(C)OC(=O)N1CCC(CCCC(=O)c2ncc(C(=O)O)o2)CC1 [Example 130, 4-[4-(5-Carboxy-oxazol-2-yl)-4-oxo-butyl]-piperidine-1-carboxylic acid tert-butyl ester] | 30 | 19
16 | O=C(CCCC1CCN(Cc2cc(F)c(F)c(F)c2)CC1)c1ncco1 [Example 131, 1-Oxazol-2-yl-4-[1-(3,4,5-trifluoro-benzyl)-piperidin-4-yl]-butan-1-one] | 88 | 760

Next, values leading:

Row | IC50 (human FAAH) [nM] | IC50 (rat FAAH) [nM] | Compound
17 | 12 | 23 | O=C(CCCC1CCN(Cc2cc3ccccc3nc2Cl)CC1)c1ncco1 [Example 97, 4-[1-(2-Chloro-quinolin-3-ylmethyl)-piperidin-4-yl]-1-oxazol-2-yl-butan-1-one]
18 | 0.4 | 7 | Cc1ccc2nc(Cl)c(CN3CCC(CCCC(=O)c4ncco4)CC3)cc2c1 [Example 98, 4-[1-(2-Chloro-6-methyl-quinolin-3-ylmethyl)-piperidin-4-yl]-1-oxazol-2-yl-butan-1-one]
19 | 30 | 11 | COc1ccc2nc(Cl)c(CN3CCC(CCCC(=O)c4ncco4)CC3)cc2c1 [Example 100, 4-[1-(2-Chloro-6-methoxy-quinolin-3-ylmethyl)-piperidin-4-yl]-1-oxazol-2-yl-butan-1-one]
20 | 23 | 44 | O=C(CCCC1CCN(Cc2ccc(C3CCCCC3)cc2)CC1)c1ncco1 [Example 101, 4-[1-(4-Cyclohexyl-benzyl)-piperidin-4-yl]-1-oxazol-2-yl-butan-1-one]
21 | 4 | 48 | COc1cccc(-c2ccc(CN3CCC(CCCC(=O)c4ncco4)CC3)cn2)c1 [Example 104, 4-{1-[6-(3-Methoxy-phenyl)-pyridin-3-ylmethyl]-piperidin-4-yl}-1-oxazol-2-yl-butan-1-one]
22 | 53 | 57 | O=C(CCCC1CCN(Cc2ccc(Oc3ccccc3)nc2)CC1)c1ncco1 [Example 105, 1-Oxazol-2-yl-4-[1-(6-phenoxy-pyridin-3-ylmethyl)-piperidin-4-yl]-butan-1-one]
23 | 23 | 235 | O=C(CCCC1CCN(Cc2ccc(N3CCCCC3)nc2)CC1)c1ncco1 [Example 108, 1-oxazol-2-yl-4-[1-(3,4,5,6-tetrahydro-2H-[1,2′]bipyridinyl-5′-ylmethyl)-piperidin-4-yl]-butan-1-one]
24 | 55 | 528 | O=C(CCCC1CCN(Cc2ccc(-c3ccco3)nc2)CC1)c1ncco1 [Example 109, 4-[1-(6-Furan-2-yl-pyridin-3-ylmethyl)-piperidin-4-yl]-1-oxazol-2-yl-butan-1-one]
25 | 9 | 141 | O=C(CCCC1CCN(Cc2ccc(-c3cccs3)nc2)CC1)c1ncco1 [Example 110, 1-Oxazol-2-yl-4-[1-(6-thiophen-2-yl-pyridin-3-ylmethyl)-piperidin-4-yl]-butan-1-one]
26 | 14 | 174 | N#Cc1cccc(-c2ccc(CN3CCC(CCCC(=O)c4ncco4)CC3)cn2)c1 [Example 112, 3-{5-[4-(4-Oxazol-2-yl-4-oxo-butyl)-piperidin-1-ylmethyl]-pyridin-2-yl}-benzonitrile]
27 | 28 | 318 | O=C(CCCC1CCN(Cc2cc(F)ccc2F)CC1)c1ncco1 [Example 113, 4-[1-(2,5-Difluoro-benzyl)-piperidin-4-yl]-1-oxazol-2-yl-butan-1-one]
28 | 78 | 750 | O=C(CCCC1CCN(Cc2ccc(F)c(F)c2)CC1)c1ncco1 [Example 115, 4-[1-(3,4-Difluoro-benzyl)-piperidin-4-yl]-1-oxazol-2-yl-butan-1-one]
29 | 258 | 323 | O=C(CCCC1CCN(Cc2ccccc2)CC1)c1ncc(-c2ccco2)o1 [Example 121, 4-(1-Benzyl-piperidin-4-yl)-1-(5-furan-2-yl-oxazol-2-yl)-butan-1-one]
30 | 30 | 450 | O=C(CCCC1CCN(Cc2cc(F)cc(F)c2F)CC1)c1ncco1 [Example 124, 1-Oxazol-2-yl-4-[1-(2,3,5-trifluoro-benzyl)-piperidin-4-yl]-butan-1-one]
31 | 4 | 81 | O=C(CCCC1CCN(Cc2ccc3c(c2)OC(F)(F)O3)CC1)c1ncco1 [Example 125, 4-[1-(2,2-Difluoro-benzo[1,3]dioxol-5-ylmethyl)-piperidin-4-yl]-1-oxazol-2-yl-butan-1-one]
